According to patent US20120122908A1, “Novel C-4 Substituted Retinoids” (University of Maryland, priority 2000, published 2012):

Tested on: LNCaP cells
Test: LNCaP cell growth, compound in combination with ATRA
Format: cell-based, human
Settings: 10^−8 to 10^−5 M in combination with 10^−5 M ATRA, compared with no drug or ATRA only
Experimental: LNCaP cells are androgen-dependent cell cultures. PC-3 cells are androgen independent cell culture.
LNCaP cells are transferred into ATRA-free medium 3 days prior to start of experiments. Medium consist of phenol red-free IMEM supplemented with 5% FBS and 1% P/S. Cell are then plated into 24-well culture plates (15000 cells per well) in 1 mL of same medium. After a 24-hour attachment period, the vehicle (ethanol) or ATRA (10^−5 M) alone or ATRA in combination with a novel compound at a range of concentrations are added to triplicate wells. Medium/treatments are changed every 3 days. After 9 days of treatment, cells are removed from the wells with typsin/EDTA and counted in a Coulter counter. Using well-known methods (Wouters W, Van Dun J, Dillen A, Coene M.-C, Cools W and De Coster R, Effects of liarozole, a new antitumoral compound an retinoic acid-induced inhibition of cell growth and on retinoic acid metabolism in MCF-7 breast cancer cells, Cancer Res 52: 2841-2846, 1992), one determines the inhibitory effect of the novel compounds on LNCaP cells grown with ATRA.

## CC1=C(/C=C/C(C)=C/C=C/C(C)=C/C(=O)O)C(C)(C)CCC1n1ccnc1 (racemic) [VN/14-1, (±)-4-(1H-imidazole-1-yl)retinoic acid]
  inhibition of proliferation of LNCaP cells: inhibit the proliferation of LNCaP cells better than no drug or ATRA only
